Patent US4704405A (priority 1986, dated 1987)

Tests used:
[1] = cited from earlier work; for bioavailability of the drug: tromethamine or sodium salts, British Pat. No. 2,059,768, German Pat. No. 134,672
[2] = in vivo

CC(=O)Oc1ccccc1C(=O)O [aspirin]
bioavailability of the drug [1]: enhanced bioavailability

COc1ccc2c(c1)c(CC(=O)O)c(C)n2C(=O)c1ccc(Cl)cc1 [indomethacin]
bioavailability of the drug [1]: enhanced bioavailability

CC1=C(CC(=O)O)c2cc(F)ccc2/C1=C\c1ccc([S+](C)[O-])cc1 (centres unmarked) [sodium sulindac]
absorption of sulindac [2]: Extremely rapid absorption

CC1=C(CC(=O)O)c2cc(F)ccc2C1=Cc1ccc([S+](C)[O-])cc1 (centres unmarked) [sulindac]
duration of action ([1]; NSAID, reduction-oxidation prodrug): long duration of action | onset of activity ([1]; sulindac, commercialized as CLINORIL): slow onset of activity
